Results taken from PMC4116524, “A virtual screen identified C96 as a novel inhibitor of phosphatidylinositol 3-kinase that displays potent preclinical activity against multiple myeloma in vitro and in vivo” (Oncotarget, 2014).

System: cleavage of PARP and caspase-3 in LP1, OPM2 and JJN3 cells
Assay: Apoptotic signaling, immunoblotting of PARP and caspase-3
Assay type: cell-based
Conditions: 0-20 μM or 10 μM for 3-12 hrs, time- and concentration-dependent
Description: Because PI3K/AKT signaling is critical in modulating MM cell proliferation and survival, while interference with this pathway will lead to cell death and regression of MM tumors, we next asked whether C96 could induce MM cell apoptosis and inhibited MM cell proliferation. […] Next, we measured the induction of apoptosis by C96 in MM cell lines. Apoptotic cells are featured with inside-out expression of phosphatidylserine which is specifically identified by Annexin V, a cellular protein in the annexin group. Therefore, to measure the apoptotic level, C96-treated cells were stained with Annexin V-FITC and propidium iodide followed by flow cytometry analysis. […] For example, less apoptotic cells were induced by C96 in KMS11 cells in the Annexin V staining assay (Figure 5), the cleavage level of PARP in this cell line was also lower than that seen in other cell lines, such as OPM2 (Figure 6A). We next examined the apoptotic signaling pathway in the treatment with C96 with increasing exposure periods or concentrations. […]
Cells were treated with or without C96 for 24 hrs before being applied to lysate preparation in a lysis buffer (50 mM Tris-HCI, pH 7.4, 1% NP-40, 0.5% Na-deoxycholate, and 0.1% SDS, 150 mM NaCl, 2 mM EDTA, 2 mM Na3VO4, and 5 mM NaF). […] All immunoblotting signals were further analyzed with Quality One Quality One software (Bio-Rad, Berkeley, CA, USA).

SMILES: O=C1NC(=O)C(=CC=Cc2cccs2)C(=O)N1 [C96, 5-(3-(2-thienyl)-2-propen-1-ylidene)-2,4,6(1H,3H,5H)-pyrimidinetrione]
- cleavage of PARP and caspase-3: induced cleavage of PARP and caspase-3
